How the values were obtained:
[1] = Clearance in cynomolgus monkey at 0.5 mg/kg, iv; type: ADME, organism-based, Macaca fascicularis; set-up: dose 0.5 mg/kg, route intravenous; settings: in vivo
in vitro [2] = settings: rhesus monkey, Stability
Description: (§2) Metabolic stability in monkey liver microsomes assessed as compound remaining after 60 mins at 5 uM

Cynomolgus monkey [3] = assay: AUC (0 to infinity) in cynomolgus monkey at 0.5 mg/kg, iv; type: ADME, organism-based, Macaca fascicularis, Plasma; set-up: time infinity, dose 0.5 mg/kg, route intravenous; settings: in vivo
[4] = Oral bioavailability in cynomolgus monkey at 0.5 mg/kg; type: ADME, organism-based, Macaca fascicularis; settings: in vivo
Hepatitis C virus [5] = assay: microbe, parasite or virus in culture; type: functional, organism-based, Hepacivirus hominis, subtype 1a, Huh-lunet
Description: Antiviral activity against HCV-1a infected in human Huh-lunet cells after 4 days by luciferase based replicon assay

in vitro [6] = settings: rhesus monkey
Description: (§3) Metabolic stability in monkey liver microsomes assessed as half life at 5 uM

[7] = Cytotoxicity against human HuH7 cells assessed as GAPDH release; type: cell-based, Huh-7
Cynomolgus monkey [8] = assay: AUC (0 to infinity) in cynomolgus monkey at 0.5 mg/kg, po; type: ADME, organism-based, Macaca fascicularis, Plasma; set-up: time infinity, dose 0.5 mg/kg, route oral; settings: in vivo
in vitro [9] = settings: human, t1/2
Hepatitis C virus [10] = assay: microbe, parasite or virus in culture; type: functional, organism-based, Hepacivirus hominis, genotype 1b, Huh-luc/neo-ET
Description: Antiviral activity against HCV-1b infected human Huh-luc/neo-ET replicon cells after 72 hrs by luciferase based replicon assay

[11] = (§1) Oral bioavailability in cynomolgus monkey at 1 mg/kg; type: ADME, organism-based, Macaca fascicularis; settings: in vivo
[12] = rhesus monkey, microsomes, 5 µM
Description: as §3

in vitro [13] = settings: human
Description: Metabolic stability in human liver microsomes assessed as compound remaining after 60 mins at 1 uM

in vitro [14] = settings: human, Caco-2
Description: Apparent permeability from apical side to basolateral side of human Caco-2 cells at 10 uM after 3 hrs

Cynomolgus monkey [15] = settings: in vivo, iv, 1 mg/kg
[16] = Clearance in cynomolgus monkey at 1 mg/kg, iv; type: ADME, organism-based, Macaca fascicularis; set-up: dose 1 mg/kg, route intravenous; settings: in vivo
[17] = rhesus monkey, microsomes, 1 h, 5 µM
Description: as §2

Cynomolgus monkey [18] = settings: in vivo, po, 1 mg/kg
physchem = settings: aqueous medium, pH 7.5
Description: Aqueous solubility at pH 7.5

Cynomolgus monkey [19] = assay: as §1; type: ADME, organism-based, Macaca fascicularis; settings: in vivo
[20] = Hepatitis C virus, subtype 1a, Huh-lunet, 96 h
[21] = Hepatitis C virus, genotype 1b, Huh-luc/neo-ET, 72 h

Row | SMILES | clearance [1] | remaining at 1 h, 5 µM (in vitro [2]; microsomes) | AUC (Cynomolgus monkey [3]) | bioavailability [4] | EC50 (Hepatitis C virus [5]; [20]) | half-life at 5 µM (in vitro [6]; microsomes) | CC50 [7] | AUC (Cynomolgus monkey [8]) | half-life at 1 µM (in vitro [9]; microsomes) | EC50 (Hepatitis C virus [10]; [21]) | bioavailability [11] | remaining at 1 h, 1 µM (in vitro [13]; liver microsomes) | Papp A→B at 3 h, 10 µM (in vitro [14]) | AUC (Cynomolgus monkey [15]) | clearance [16] | half-life at 1 µM (in vitro [9]; liver microsomes) | Stability [17] | AUC (Cynomolgus monkey [18]) | solubility (physchem) | remaining at 1 h, 1 µM (in vitro [13]; microsomes) | other results
1 | CS(=O)(=O)Nc1ccc2c(c1)S(=O)(=O)N=C(C1=C(O)[C@H]3[C@@H]4CC[C@@H](C4)[C@H]3N(Cc3ccc(F)cc3)C1=O)N2 | 6.5 mL/min/kg | 58% | 1390 ng·h/mL | 12% | 5.4 µM | > 1 h | > 33 µM | 163 ng·h/mL | 0.333 h | 0.55 µM |  |  |  |  |  |  |  |  |  |  | 
2 | CS(=O)(=O)Nc1ccc2c(c1)S(=O)(=O)N=C(C1=C(O)[C@@H]3[C@H]4CC[C@H](C4)[C@@H]3N(Cc3ccc(F)c(F)c3)C1=O)N2 |  |  |  |  | 0.037 µM |  |  |  |  | 0.007 µM | 45% | 100% | 1.05 ×10⁻⁶ cm/s | 44800 ng·h/mL | 0.37 mL/min/kg | > 1 h | 95% | 20300 ng·h/mL | > 100 µM |  | t1/2 [12]: 1 h
3 | CS(=O)(=O)Nc1ccc2c(c1)S(=O)(=O)N=C(C1=C(O)[C@@H]3[C@@H]([C@H]4CC[C@@H]3O4)N(Cc3ccc(F)cc3)C1=O)N2 |  |  |  |  | 0.066 µM |  | > 1 µM |  |  | 0.006 µM | 3% | 100% | 0.08 ×10⁻⁶ cm/s | 2650 ng·h/mL | 6.3 mL/min/kg | > 1 h |  | 90 ng·h/mL | > 100 µM |  | remaining at 1 h, 5 µM (in vitro [2]; liver microsomes): 100%; half-life at 5 µM (in vitro [6]; liver microsomes): > 1 h
4 | CS(=O)(=O)Nc1ccc2c(c1)S(=O)(=O)N=C(C1=C(O)[C@H]3[C@H]4CC[C@H](C4)[C@H]3N(Cc3ccc(F)cc3)C1=O)N2 | 5.7 mL/min/kg | 95% | 1570 ng·h/mL | 26% | 2.5 µM | > 1 h | > 33 µM | 409 ng·h/mL | > 1 h | 0.27 µM |  |  |  |  |  |  |  |  |  | 75% | 
5 | CS(=O)(=O)Nc1ccc2c(c1)S(=O)(=O)N=C(C1=C(O)C3C4CCC(C4)C3N(Cc3ccc(F)cc3)C1=O)N2 (racemic; 2a) |  | 91% |  |  |  | > 1 h | > 1 µM |  | 0.567 h |  |  |  |  | 63900 ng·h/mL |  |  |  | 30700 ng·h/mL |  |  | F (Cynomolgus monkey [19]): 48%; EC50 (Hepatitis C virus [5]; huh-lunet): 0.33 µM; EC50 (Hepatitis C virus [10]; huh-luc/neo-et): 0.005 µM
6 | CS(=O)(=O)Nc1ccc2c(c1)S(=O)(=O)N=C(C1=C(O)C3C4CCC(C4)C3N(Cc3ccc(F)cc3)C1=O)N2 (racemic; 2b) |  |  |  |  |  |  |  |  |  |  |  |  |  | 5500 ng·h/mL |  |  | 92% | 1350 ng·h/mL |  | 73% | F (Cynomolgus monkey [19]): 25%; EC50 (Hepatitis C virus [5]; huh-lunet): 0.091 µM; EC50 (Hepatitis C virus [10]; huh-luc/neo-et): 0.002 µM
